Reference: paper PMC10721329, “Quisinostat is a brain-penetrant radiosensitizer in glioblastoma” (JCI Insight, 2023)
Values joined by “and” are separate entries in the source; they are usually repeats but may differ in a detail not shown here. Identical values can stand only once.

Legend:
GB126 cells = assay: Ki67 / cleaved caspase-3 immunofluorescence; format: cell-based, human; details: QST at IC50, 72 hours, replicates
Experimental: (§1) Cells were grown as adherent cultures on laminin -coated glass coverslips (Thermo Fisher Scientific) in GSC media. Twenty-four hours after plating, the cells were treated with QST or DMSO diluted in GSC media. Seventy-two hours after treatment, cells were fixed with 4% paraformaldehyde for 13 minutes at room temperature. Cells were washed with phosphate-buffered saline (PBS) and subsequently permeabilized and blocked with 5% normal goat serum (Sigma Aldrich) and 0.2% Triton X -100 in PBS (blocking solution) for 30 minutes at room temperature. The cells were incubated with primary antibodies overnight a t 4 °C in blocking solution. Primary antibodies used in this study included rabbit anti -Ki67 (1:1000; Abcam, 15580), rabbit anti-Cleaved Caspase 3 (1:400; Cell Signaling Technologies, 9661), rabbit anti - gamma H2AX (phospho Ser139; 1:1000, Abcam, ab11174), and mouse anti-human Nestin (1:500; Novus Biologicals, 10C2). The following day, the cells were washed with PBS 3 times, incubated with fluorophore-conjugated secondary antibodies at 1: 1000 dilutions (Alexa Fluor […]
(§2) for 1 hour at room temperature, and washed in PBS 3 more times. Cells were mounted onto […]
(§3) SuperFrost Plus microscope slides using Fluoroshield Mounting Medium containing DAPI (Abcam). Images were acquired using a confocal microscope (Leica Microsystems; TCS SP5) operated with Leica Application Suite software. The fraction of Ki67- and Cleaved Caspase 3– positive cells were counted from 5 independent images from each condition. The mean and standard deviation were calculated from 3 biological replicates for all control and QST-treated […]
(§4) Analysis of immunostaining of cultured GSCs was performed on confocal stacks (with a step size of 0.5–1.5 μm) acquired with either a 20× water-immersion objective or a 63× oil-immersion objective on a laser-scanning confocal microscope (Leica Microsystems; TCS SP5) operated with Leica Application Suite software. All images were processed using ImageJ software (National Institutes of Health). […]
(§5) mL of ice cold 70% ethanol, added dropwise while vortexing. Cells were fixed on ice for 30 minutes and washed twice with 1× PBS. Cells were then resuspended in 500 μL of propidium iodide/RNAse staining buffer (BD Biosciences, 550825) for 15 minutes at room temperature before analysis. Data from all the samples were obtained using a Fortessa flow cytometer (BD […]

BT145 cells = assay: Ki67 / cleaved caspase-3 immunofluorescence; format: cell-based, human; details: QST at IC50, 72 hours, replicates
Experimental: as §1, §2, §3, §4, §5

orthotopic GB126 tumors = assay: Survival study, orthotopic GB126 PDX, QST with or without IR; format: in vivo, athymic nude mice; details: for Survival, Days Post Injection (death): GB126 PDX, individual mice; for increase of median survival versus vehicle: orthotopic GB126 PDX
Experimental: We additionally questioned whether QST, either alone or in combination with IR, could extend the survival of tumor-bearing mice. In this study, mice received the same treatments described above, but after completion of the 1-week IR regimen, mice continued to receive QST at 10 mg/kg or vehicle solution on MWF until study completion, as determined by large tumor burden and onset of neurological symptoms (Figure 8A). […] Although QST monotherapy slowed tumor growth, median survival for the QST-treated mice was only 4 days longer than for the vehicle-treated mice (P < 0.01), and IR alone increased median survival by 17 days (P < 0.001; Figure 8D). However, combining QST with IR led to a significant increase in median survival (37 days, P < 0.001) compared with the vehicle (Figure 8D).
Seven-week-old Foxn1^nu nude male mice (The Jackson Laboratory) were used for in vivo orthotopic transplantation of luciferized GB126 ([…]) cells (at a density of 50,000 cells/μL). All procedures were performed as described elsewhere ([11]). All mice were observed daily and were sacrificed upon the onset of severe neurological symptoms and more than 10% body weight loss. Survival data were plotted and analyzed using GraphPad Prism 8. See Supplemental Methods for detailed in vivo methods. […]
treated with 2 Gy of ionizing radiation on MWF for a total 6 Gy (3 doses). Ionizing radiation was administered with the RS2000 series biological research irradiator (Rad Source Technologies). […]
Treatment of Mice with Intracranially Implanted QST and/or Radiation
Mice with implanted tumors were allowed to grow until the tumor bioluminescence score reached […] radiance (p/s/[…]/sr). Mice were randomized into groups before treatment. For survival studies, mice underwent treatment on MWF for the entire duration of the experiment until moribund. For mice receiving IR treatment with or without QST, mice were treated with 2 […]
Gy on MWF for a total of 6 Gy in the first week of treatment. Treatment groups included vehicle (50% PEG-3000), QST (10 mg/kg) alone, 6 Gy whole-brain IR treatment with vehicle, and 6 Gy whole-brain IR treatment with 10 mg/kg QST. QST was administered to mice through intraperitoneal injections two hours prior to whole-brain radiation treatment. Upon completion of the radiation regimen, IR-treated mice subsequently received QST or vehicle alone for the rest of the experiment. Tumor growth and treatment response was monitored by IVIS bioluminescence once per week. For survival studies, mice were sacrificed, and samples were collected for PD and PK analyses once moribund 2 hours after treatment with a final dose of QST (10 mg/kg).
For short-term PK-PD correlation studies, tumor-bearing mice were randomized into groups and underwent a single week of treatment with QST (10 mg/kg) on MWF. […]

Cn1cc(CNCC2CCN(c3ncc(C(=O)NO)cn3)CC2)c2ccccc21 [QST, quisinostat]
% CC-3 + / DAPI (GB126 cells): 18.5009% and 22.4947% and 8.724% | % Ki67+ / DAPI (GB126 cells): 8.013% and 11.9177% and 10.7184% | % CC-3 + / DAPI (BT145 cells): 11.8845% and 6.461% and 13.5339% | % Ki67+ / DAPI (BT145 cells): 26.1653% and 29.1973% and 26.725% | Survival, Days Post Injection (death) (orthotopic GB126 tumors; QST 10 mg/kg + IR 6 Gy): 79 days and 85 days and 83 days and 86 days and 75 days and 84 days and 82 days | Survival, Days Post Injection (death) (orthotopic GB126 tumors; QST 10 mg/kg alone): 65 days and 50 days and 49 days and 48 days and 46 days and 57 days and 54 days and 66 days | increase of median survival versus vehicle (orthotopic GB126 tumors; QST 10 mg/kg MWF + IR 6 Gy): 37 days | increase of median survival versus vehicle (orthotopic GB126 tumors; QST 10 mg/kg MWF monotherapy): 4 days
